Experimental findings from ChEMBL document CHEMBL4433214, “Investigation around the Oxadiazole Core in the Discovery of a New Chemotype of Potent and Selective FXR Antagonists” (ACS Med Chem Lett, 2019) are described below.

Values after ≈ are worked out from the molar mass of the structure shown. Active and inactive are the calls of the source. No cut-off for these calls is given here.

Series [1] has as its target T1, Bile acid receptor (Homo sapiens) (UniProt Q96RI1).
T1 sequence (whole entry): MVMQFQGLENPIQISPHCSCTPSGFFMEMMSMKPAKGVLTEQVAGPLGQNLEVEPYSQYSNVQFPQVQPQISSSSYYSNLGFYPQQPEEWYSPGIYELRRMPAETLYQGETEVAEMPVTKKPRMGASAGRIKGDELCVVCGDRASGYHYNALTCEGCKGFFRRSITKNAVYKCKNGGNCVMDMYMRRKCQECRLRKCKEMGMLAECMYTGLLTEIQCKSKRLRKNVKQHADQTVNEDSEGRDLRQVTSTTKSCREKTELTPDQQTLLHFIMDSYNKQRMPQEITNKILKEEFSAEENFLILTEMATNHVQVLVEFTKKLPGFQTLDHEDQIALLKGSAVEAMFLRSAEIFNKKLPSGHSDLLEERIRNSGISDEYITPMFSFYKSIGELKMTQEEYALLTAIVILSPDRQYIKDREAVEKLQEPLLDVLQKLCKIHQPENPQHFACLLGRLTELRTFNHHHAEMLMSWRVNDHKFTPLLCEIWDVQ
Kind of series: Antagonist activity at human FXR in HepG2 cells assessed as reversal of CDCA-induced increase in OSTalpha mRNA expression level at 0.1 to 1 uM dosed after 24 hrs starvation followed by CDCA addition and measured after 18 hrs by RT-PCR analysis.

Series [2] concerns the target T1, Bile acid receptor (Homo sapiens). Kind of series: Antagonist activity at human FXR transfected in HepG2 cells assessed as inhibition of CDCA-induced receptor transactivation at 10 uM by luciferase reporter assay relative to control. The class given is cell-based. Set-up: scale not given: the % may be the effect or the level left.
Series [3] concerns the target T2, Oxysterols receptor LXR-alpha (Homo sapiens) (UniProt Q13133).
T2 sequence (whole entry): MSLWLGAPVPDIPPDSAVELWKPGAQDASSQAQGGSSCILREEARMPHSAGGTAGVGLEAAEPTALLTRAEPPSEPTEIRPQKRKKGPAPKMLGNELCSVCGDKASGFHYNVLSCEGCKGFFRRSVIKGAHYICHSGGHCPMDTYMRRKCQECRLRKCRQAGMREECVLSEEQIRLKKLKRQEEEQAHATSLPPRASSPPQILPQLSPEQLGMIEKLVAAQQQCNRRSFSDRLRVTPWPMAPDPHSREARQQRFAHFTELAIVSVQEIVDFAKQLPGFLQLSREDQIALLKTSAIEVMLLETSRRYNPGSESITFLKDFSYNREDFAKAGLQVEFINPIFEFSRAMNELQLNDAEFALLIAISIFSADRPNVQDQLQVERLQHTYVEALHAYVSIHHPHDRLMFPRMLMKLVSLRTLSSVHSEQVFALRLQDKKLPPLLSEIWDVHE
Kind of series: Agonist activity at human LXRalpha transfected in HepG2 at 10 uM by luciferase reporter assay. The class given is cell-based.

The target in series [4] is T3, Oxysterols receptor LXR-beta (Homo sapiens) (UniProt P55055).
T3 sequence (whole entry): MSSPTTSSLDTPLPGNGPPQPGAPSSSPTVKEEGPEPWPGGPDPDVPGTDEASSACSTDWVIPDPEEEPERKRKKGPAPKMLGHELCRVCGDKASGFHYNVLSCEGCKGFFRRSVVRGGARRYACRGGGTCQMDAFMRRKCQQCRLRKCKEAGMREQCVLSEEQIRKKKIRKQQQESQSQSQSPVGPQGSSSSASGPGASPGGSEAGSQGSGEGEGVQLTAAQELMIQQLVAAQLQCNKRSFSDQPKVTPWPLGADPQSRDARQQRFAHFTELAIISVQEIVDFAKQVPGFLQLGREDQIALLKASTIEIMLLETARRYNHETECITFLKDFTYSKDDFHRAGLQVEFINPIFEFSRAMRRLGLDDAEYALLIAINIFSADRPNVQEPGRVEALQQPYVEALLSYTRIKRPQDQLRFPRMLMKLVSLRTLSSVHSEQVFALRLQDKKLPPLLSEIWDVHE
The series can be described thus: Agonist activity at human LXRbeta transfected in HepG2 at 10 uM by luciferase reporter assay. The class given is cell-based.

In series [5] the target is T4, Peroxisome proliferator-activated receptor gamma (Homo sapiens) (UniProt P37231).
T4 sequence (whole entry): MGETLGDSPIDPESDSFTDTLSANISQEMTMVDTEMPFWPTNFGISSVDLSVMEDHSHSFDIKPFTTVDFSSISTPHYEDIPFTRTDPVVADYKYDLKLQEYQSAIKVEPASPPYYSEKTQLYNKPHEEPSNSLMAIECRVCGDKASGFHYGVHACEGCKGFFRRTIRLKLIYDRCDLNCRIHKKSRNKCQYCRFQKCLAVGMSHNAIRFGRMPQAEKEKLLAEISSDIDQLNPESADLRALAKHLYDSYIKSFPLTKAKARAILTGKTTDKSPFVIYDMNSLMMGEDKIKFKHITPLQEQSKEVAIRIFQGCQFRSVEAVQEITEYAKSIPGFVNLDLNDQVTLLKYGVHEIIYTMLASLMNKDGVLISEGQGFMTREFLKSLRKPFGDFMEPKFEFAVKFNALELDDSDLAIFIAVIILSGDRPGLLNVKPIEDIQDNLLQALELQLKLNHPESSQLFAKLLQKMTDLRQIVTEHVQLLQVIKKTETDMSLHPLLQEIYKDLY
Kind of series: Antagonist activity at human PPARgamma transfected in HepG2 at 5 uM in presence of PPARgamma agonist rosiglitazone by luciferase reporter assay. The class given is cell-based.

A short description of series [6]: Aqueous solubility of compound in pH 7.4 PBS buffer incubated for 24 hrs under gently shaking condition by LC-MS/MS analysis. Format: physicochemical.
Series [7] concerns the target T1, Bile acid receptor (Homo sapiens). The series can be described thus: Antagonist activity at human FXR in HepG2 cells assessed as reversal of CDCA-induced increase in PEPCK mRNA expression level at 0.1 to 1 uM dosed after 24 hrs starvation followed by CDCA addition and measured after 18 hrs by RT-PCR analysis.
The target is the same in series [8]. The series can be described thus: Antagonist activity at human FXR in HepG2 cells assessed as reversal of CDCA-induced increase in SHP mRNA expression level at 0.1 to 1 uM dosed after 24 hrs starvation followed by CDCA addition and measured after 18 hrs by RT-PCR analysis.
Series [9] shares this target. The series can be described thus: Antagonist activity at human FXR in HepG2 cells assessed as reversal of CDCA-induced reduction in CYP7A1 mRNA expression level at 0.1 to 1 uM dosed after 24 hrs starvation followed by CDCA addition and measured after 18 hrs by RT-PCR analysis. The class given is […].
Series [10] in a line: Intrinsic clearance in rat liver microsomes at 1 uM incubated for 2 hrs by LC-MS/MS analysis. The following applies: read-out: CLH.
A short description of series [11]: Metabolic stability in rat liver microsomes assessed as parent compound remaining at 1 uM measured after 40 mins by LC-MS/MS analysis.

For the molecule `c1ccc2cc(-c3noc(C4CCNCC4)n3)ccc2c1`, the result in [1], in series [7], in series [8] and in [9] was Active. Also, the Activity in series [2] was found to be 80%. For the same molecule, the result in series [3], in [4] and in series [5] was inactive. Moreover, the solubility at 24 h in series [6] came to 200 µM (≈ 55.9 µg/mL). For the same molecule, the microsomal CLint at 1 µM in series [10] was 20.7 µL/min/mg. For the same molecule, the amount remaining at 40 min, 1 µM in series [11] was found to be 76.2%.
